Data as given in patent publication US8242274B2, “Triazolopyridine kinase inhibitors useful for the treatment of degenerative and inflammatory diseases” (Galapagos NV, priority 2008, dated 2012).

Tests used:
[1] = target: T1, Recombinant human JAK1 catalytic domain (Homo sapiens, UniProt P23458); experiment: JAK1 inhibition assay; type: biochemical; conditions: semi-quantitative score
T1 construct: Recombinant human JAK1 catalytic domain (amino acids 850-1154; catalog number 08-144); purchased Carna Biosciences 08-144
Protocol: Recombinant human JAK1 catalytic domain (amino acids 850-1154; catalog number 08-144) was purchased from Carna Biosciences. 10 ng of JAK1 was incubated with 12.5 μg polyGT substrate (Sigma catalog number P0275) in kinase reaction buffer (15 mM Tris-HCl pH 7.5, 1 mM DTT, 0.01% Tween-20, 10 mM MgCl2, 2 μM non-radioactive ATP, 0.25 μCi 33P-gamma-ATP (GE Healthcare, catalog number AH9968) final concentrations) with or without 5 μL containing test compound or vehicle (DMSO, 1% final concentration), in a total volume of 25 μL, in a polypropylene 96-well plate (Greiner, V-bottom). After 45 min at 30° C., reactions were stopped by adding of 25 μL/well of 150 mM phosphoric acid. All of the terminated kinase reaction was transferred to prewashed (75 mM phosphoric acid) 96 well filter plates (Perkin Elmer catalog number 6005177) using a cell harvester (Perkin Elmer). Plates were washed 6 times with 300 μL per well of a 75 mM phosphoric acid solution and the bottom of the plates was sealed. 40 μL/well of Microscint-20 was added, the top of the plates was sealed and readout was performed using the Topcount (Perkin Elmer). Kinase activity was calculated by subtracting counts per minute (cpm) obtained in the presence of a positive control inhibitor (10 μM staurosporine) from cpm obtained in the presence of vehicle. The ability of a test compound to inhibit this activity was determined as: Percentage inhibition=((cpm determined for sample with test compound present−cpm determined for sample with positive control inhibitor)divided by(cpm determined in the presence of vehicle−cpm determined for sample with positive control inhibitor))*100%.
(§1) Dose dilution series were prepared for the compounds enabling the testing of dose-response effects in the JAK1 assay and the calculation of the IC50 for each compound. Each compound was routinely tested at concentration of 20 μM followed by a 1/3 serial dilution, 8 points (20 μM-6.67 μM-2.22 μM-740 nM-247 nM-82 nM-27 nM-9 nM) in a final concentration of 1% DMSO.

[2] = Microsomal stability, rat; type: in vitro ADME; conditions: rat liver microsomes, 3 μM compound, 37° C.
Protocol: (§2) A 10 mM stock solution of compound in DMSO was diluted 1000 fold in a 182 mM phosphate buffer pH 7.4 in a 96 deep well plate (Greiner, Cat no. 780285) and pre-incubated at 37° C.
(§3) 40 μL of deionised water was added to a well of a polypropylene Matrix 2D barcode labelled storage tube (Thermo Scientific) and pre-incubated at 37° C.
(§4) A Glucose-6-phosphate-dehydrogenase (G6PDH) working stock solution was prepared in 182 mM phosphate buffer pH7.4 and placed on ice before use. A co-factor containing MgCl2, glucose-6-phosphate and NADP+ was prepared in deionised water and placed on ice before use.
(§5) A final working solution containing liver microsomes (Xenotech) of a species of interest (human, mouse, rat, dog), previously described G6PDH and co-factors was prepared and this mix was incubated for no longer than 20 minutes at room temperature.
(§6) 30 μL of the pre-heated compound dilution was added to 40 μL of pre-heated water in the Matrix tubes and 30 μL of the microsomal mix was added. Final reaction concentrations were 3 μM compound, 1 mg microsomes, 0.4 U/mL GDPDH, 3.3 mM MgCl2, 3.3 mM glucose-6-phosphate and 1.3 mM NADP+.
(§7) To measure percentage remaining of compound at time zero MeOH or ACN was added (1:1) to the well before adding the microsomal mix. The plates were sealed with Matrix Sepra Seals™ (Matrix, Cat. No. 4464) and shaken for a few seconds ensure complete mixing of all components.
(§8) The samples which were not stopped are incubated at 37° C., 300 rpm and after 1 hour of incubation the reaction was stopped with MeOH or ACN (1:1).
(§9) After stopping the reaction the samples were mixed and placed on ice for 30 min to precipitate the proteins. The plates were then centrifuged 30 min at 1200 rcf at 4° C. and the supernatant was transferred to a 96 v-bottom PP plate (Greiner, 651201) for analysis on LCMS.
(§10) These plates were sealed with sealing mats (MA96RD-04S) of www.kinesis.co.uk and samples were measured at room temperature on LCMS (ZQ 1525 from Waters) under optimized conditions using Quanoptimize to determine the appropriate mass of the parent molecule.
(§11) The samples were analyzed on LCMS with a flow rate of 1 mL/min. Solvent A was 15 mM ammonia and solvent B was methanol or acetonitrile, depending on the stop solution used. The samples were run under positive ion spray on an XBridge C18 […] (2.1×30 mm) column, from Waters.
(§12) Peak area from the parent compound at time 0 was considered to be 100% remaining. The percentage remaining after 1 hour incubation was calculated from time 0 and was calculated as the percentage remaining. The solubility of the compound in the final test concentration in buffer is inspected by microscope and results are reported.
(§13) The data on microsomal stability are expressed as a percentage of the total amount of compound remaining after 60 minutes.

[3] = Microsomal stability, human; type: in vitro ADME; conditions: human liver microsomes, 3 μM compound, 37° C.
Protocol: as §2, §3, §4, §5, §6, §7, §8, §9, §10, §11, §12, §13

[4] = target: T2, Recombinant human JAK2 catalytic domain (Homo sapiens, UniProt O60674); experiment: JAK2 inhibition assay; type: biochemical; conditions: semi-quantitative score
T2 construct: Recombinant human JAK2 catalytic domain (amino acids 808-1132; catalog number PV4210); purchased Invitrogen PV4210
Protocol: Recombinant human JAK2 catalytic domain (amino acids 808-1132; catalog number PV4210) was purchased from Invitrogen. 0.025 mU of JAK2 was incubated with 2.5 μg polyGT substrate (Sigma catalog number P0275) in kinase reaction buffer (5 mM MOPS pH 7.5, 9 mM MgAc, 0.3 mM EDTA, 0.06% Brij and 0.6 mM DTT, 1 μM non-radioactive ATP, 0.25 μCi 33P-gamma-ATP (GE Healthcare, catalog number AH9968) final concentrations) with or without 5 μL containing test compound or vehicle (DMSO, 1% final concentration), in a total volume of 25 μL, in a polypropylene 96-well plate (Greiner, V-bottom). After 90 min at 30° C., reactions were stopped by adding of 25 μL/well of 150 mM phosphoric acid. All of the terminated kinase reaction was transferred to prewashed (75 mM phosphoric acid) 96 well filter plates (Perkin Elmer catalog number 6005177) using a cell harvester (Perkin Elmer). Plates were washed 6 times with 300 μL per well of a 75 mM phosphoric acid solution and the bottom of the plates was sealed. 40 μL/well of Microscint-20 was added, the top of the plates was sealed and readout was performed using the Topcount (Perkin Elmer). Kinase activity was calculated by subtracting counts per minute (cpm) obtained in the presence of a positive control inhibitor (10 μM staurosporine) from cpm obtained in the presence of vehicle. The ability of a test compound to inhibit this activity was determined as: Percentage inhibition=((cpm determined for sample with test compound present−cpm determined for sample with positive control inhibitor) divided by (cpm determined in the presence of vehicle−cpm determined for sample with positive control inhibitor))*100%.
as §1, with “JAK2” for “JAK1”

[5] = Caco2 permeability, bi-directional; type: in vitro ADME; conditions: human, Caco-2; 10 μM, 1 hour, pH 7.4
Protocol: Bi-directional Caco-2 assays were performed as described below. Caco-2 cells were obtained from European Collection of Cell Cultures (ECACC, cat 86010202) and used after a 21 day cell culture in 24-well Transwell plates (Fisher TKT-545-020B).
2×10^5 cells/well were seeded in plating medium consisting of DMEM+GlutaMAXI+1% NEAA+10% FBS (FetalClone II)+1% Pen/Strep. The medium was changed every 2-3 days.
Test and reference compounds (propranolol and rhodamine 123 or vinblastine, all purchased from Sigma) were prepared in Hanks' Balanced Salt Solution containing 25 mM HEPES (pH 7.4) and added to either the apical (125 μL) or basolateral (600 μL) chambers of the Transwell plate assembly at a concentration of 10 μM with a final DMSO concentration of 0.25%.
50 μM Lucifer Yellow (Sigma) was added to the donor buffer in all wells to assess integrity of the cell layers by monitoring Lucifer Yellow permeation. As Lucifer Yellow (LY) cannot freely permeate lipophilic barriers, a high degree of LY transport indicates poor integrity of the cell layer.
After a 1 hour incubation at 37° C. while shaking at an orbital shaker at 150 rpm, 70 μL aliquots were taken from both apical (A) and basal (B) chambers and added to 100 μLl 50:50 acetonitrile:water solution containing analytical internal standard (0.5 μM carbamazepine) in a 96 well plate.
Lucifer yellow was measured with a Spectramax Gemini XS (Ex 426 nm and Em 538 nm) in a clean 96 well plate containing 150 μL of liquid from basolateral and apical side.
Concentrations of compound in the samples were measured by high performance liquid-chromatography/mass spectroscopy (LC-MS/MS).
The Efflux ratios, as an indication of active efflux from the apical cell surface, were calculated using the ratio of PappB>A/PappA>B.

TNF release = experiment: Septic shock model (LPS); type: in vivo, mice; conditions: 3 mg/kg
Protocol: Injection of lipopolysaccharide (LPS) induces a rapid release of soluble tumour necrosis factor (TNF-alpha) into the periphery. This model is used to analyse prospective blockers of TNF release in vivo.
Six BALB/cJ female mice (20 g) per group were treated at the intended dosing once, po. Thirty minutes later, LPS (15 μg/kg; E. Coli serotype 0111:B4) was injected ip. Ninety minutes later, mice were euthanized and blood was collected. Circulating TNF alpha levels were determined using commercially available ELISA kits. Dexamethasone (5 μg/kg) was used as a reference anti-inflammatory compound. Selected compounds are tested at one or multiple doses, e.g. 3 and/or 10 and/or 30 mg/kg, po.

MMP13 = experiment: OSM/IL-1β signaling assay (SW1353 cells); type: cell-based; conditions: Homo sapiens, 25 ng/mL OSM and 1 ng/mL IL-1β, 48 hours
Protocol: The cells were seeded in 96 well plates at 15,000 cells/well in a volume of 120 μL DMEM (Invitrogen) containing 10% (v/v) FBS and 1% penicillin/streptomycin (InVitrogen) incubated at 37° C. 5% CO2. Cells were preincubated with 15 μL compound in M199 medium with 2% DMSO 1 hr before triggering with 15 μL OSM and IL-1β to reach 25 ng/mL OSM and 1 ng/mL IL-1β, and MMP13 levels were measured in conditioned medium 48 hours after triggering. MMP13 activity was measured using an antibody capture activity assay. For this purpose, 384 well plates (NUNC, 460518, MaxiSorb black) were coated with 35 μL of a 1.5 μg/mL anti-human MMP13 antibody (R&D Systems, MAB511) solution for 24 hours at 4° C. After washing the wells 2 times with PBS+0.05% Tween, the remaining binding sites were blocked with 100 μL 5% non-fat dry milk (Santa Cruz, sc-2325, Blotto) in PBS for 24 hours at 4° C. […] Next the wells were washed twice with PBS+0.05% Tween followed by MMP13 activation by addition of 35 μL of a 1.5 mM 4-Aminophenylmercuric acetate (APMA) (Sigma, A9563) solution and incubation at 37° C. for 1 hour. […] After incubation for 24 hours at 37° C. fluorescence of the converted substrate was measured in a Perkin Elmer Wallac EnVision 2102 Multilabel Reader (wavelength excitation: 320 nm, wavelength emission: 405 nm).

T2 sequence (O60674 808-1132): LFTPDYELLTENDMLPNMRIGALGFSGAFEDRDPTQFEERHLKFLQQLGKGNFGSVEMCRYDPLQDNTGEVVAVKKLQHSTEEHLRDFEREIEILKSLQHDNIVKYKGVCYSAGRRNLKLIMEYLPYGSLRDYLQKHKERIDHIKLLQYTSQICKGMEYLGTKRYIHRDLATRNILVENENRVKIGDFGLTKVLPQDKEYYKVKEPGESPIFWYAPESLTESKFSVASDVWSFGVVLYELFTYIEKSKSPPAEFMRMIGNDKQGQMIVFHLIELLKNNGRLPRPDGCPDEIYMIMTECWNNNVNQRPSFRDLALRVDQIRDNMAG
T1 sequence (P23458 850-1154): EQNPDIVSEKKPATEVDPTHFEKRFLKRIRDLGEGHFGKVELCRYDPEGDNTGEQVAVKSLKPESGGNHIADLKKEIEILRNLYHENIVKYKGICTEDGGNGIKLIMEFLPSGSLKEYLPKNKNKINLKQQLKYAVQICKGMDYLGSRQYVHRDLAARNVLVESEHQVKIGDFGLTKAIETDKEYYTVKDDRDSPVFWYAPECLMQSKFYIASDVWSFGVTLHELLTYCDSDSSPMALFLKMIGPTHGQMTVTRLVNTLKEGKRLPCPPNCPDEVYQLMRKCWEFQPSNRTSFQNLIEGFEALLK

Row | IC50 [1] [nM] | Microsomal stability Rat (%), compound remaining after 60 minutes [2] [%] | Microsomal stability Human (%), compound remaining after 60 minutes [3] [%] | IC50 [4] [nM] | Papp A→B at 1 h, 10 μM [5] [×10⁻⁶ cm/s] | EC50 (MMP13) [nM] | SMILES | activity in the septic shock model (TNF release)
1 | 0.1 to 100 | 25.64 | 2.13 |  |  |  | COC(=O)c1ccc(COc2ccc(-c3cccc4nc(NC(=O)C5CC5)nn34)cc2)nc1 [Compound 190] | 
2 |  |  |  | > 501 |  |  | O=C(Nc1nc2cccc(-c3cccc(OCc4ccccc4)c3)n2n1)C1CC1 [Compound 14, N-(5-(3-(benzyloxy)phenyl)-[1,2,4]triazolo[1,5-a]pyridin-2-yl)cyclopropanecarboxamide] | 
3 | 0.1 to 100 | 14 | 43 |  | 25.8 |  | O=C(Nc1nc2cccc(-c3ccc(OCc4ccccc4)c(F)c3)n2n1)C1CC1 [Compound 15, N-(5-(4-(benzyloxy)-3-fluorophenyl)-[1,2,4]triazolo[1,5-a]pyridin-2-yl)cyclopropanecarboxamide] | 
4 | 0.1 to 100 | 19.23 | 19.33 |  |  |  | O=C(Nc1nc2cccc(-c3ccc(NCc4cccnc4)cc3)n2n1)C1CC1 [Compound 182, N-(5-(4-(pyridin-3-ylmethylamino)phenyl)-[1,2,4]triazolo[1,5-a]pyridin-2-yl)cyclopropanecarboxamide] | 
5 | 0.1 to 100 | 59.41 | 46.6 | 1 to 100 |  |  | Cc1ccc(COc2ccc(-c3cccc4nc(NC(=O)C5CC5)nn34)cc2)cn1 [Compound 197, Cyclopropanecarboxylic acid {5-[4-(6-methyl-pyridin-3-ylmethoxy)-phenyl]-[1,2,4]triazolo[1,5-a]pyridin-2-yl}-amide] | active
6 | 0.1 to 100 | 39.78 | 53.64 |  | 13.4 |  | CC(=O)Nc1nc2cccc(-c3ccc(OCc4ccccc4)cc3)n2n1 [Compound 163, N-(5-(4-(benzyloxy)phenyl)-[1,2,4]triazolo[1,5-a]pyridin-2-yl)acetamide] | 
7 | 0.1 to 100 | 72.45 | 65.8 | 1 to 100 |  |  | O=C(Nc1nc2cccc(-c3ccc(OCc4ccc(Cl)nc4)cc3)n2n1)C1CC1 [Compound 198, Cyclopropanecarboxylic acid {5-[4-(6-chloro-pyridin-3-ylmethoxy)-phenyl]-[1,2,4]triazolo[1,5-a]pyridin-2-yl}-amide] | 
8 | 0.1 to 100 | 77.62 | 127.2 |  | 12.5 | > 1000 | NC(=O)c1ccc(COc2ccc(-c3cccc4nc(NC(=O)C5CC5)nn34)cc2)cn1 [Compound 192, 5-{4-[2-(Cyclopropanecarbonyl-amino)-[1,2,4]triazolo[1,5-a]pyridin-5-yl]-phenoxymethyl}-pyridine-2-carboxylic acid amide] | 
9 | > 501 |  |  |  |  |  | O=C(Nc1nc2cccc(-c3ccc(OCc4ccc(N5CCCC5)nc4)cc3)n2n1)C1CC1 [Compound 174, N-(5-(4-((6-(pyrrolidin-1-yl)pyridin-3-yl)methoxy)phenyl)-[1,2,4]triazolo[1,5-a]pyridin-2-yl)cyclopropanecarboxamide] | 
